Assay results taken from the supplement of paper PMC10307832.

Legend:
Experiment in all cases: relative viability (nuclei count vs DMSO), 5 days (fraction); higher = more cells survive
KIN001-266 + Trametinib = compound: CCN1CCC(CC1)N2C=C(N=N2)CNC3=CC4=C(C(=CN=C4C(=C3)Cl)C#N)NC5=CC(=C(C=C5)F)Cl [KIN001-266] + CC(=O)Nc1cccc(-n2c(=O)n(C3CC3)c(=O)c3c(Nc4ccc(I)cc4F)n(C)c(=O)c(C)c32)c1 [Trametinib] (partner 0.02 µM)
Summary of the method: (§1)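 Relative viability is defined as nuclei in treated wells over nuclei in vehicle wells. Duplicate plates were run and medians reported. Lung cancer cell lines in 1536-well plates were dosed by pin tool one day after seeding, with one drug or with a fixed anchor-drug dose plus five library-drug doses (not always all listed) in √10 steps, and nuclei were counted after 5 days.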

KIN001-266 + Lapatinib = compound: CCN1CCC(CC1)N2C=C(N=N2)CNC3=CC4=C(C(=CN=C4C(=C3)Cl)C#N)NC5=CC(=C(C=C5)F)Cl [KIN001-266] + CS(=O)(=O)CCNCc1ccc(-c2ccc3ncnc(Nc4ccc(OCc5cccc(F)c5)c(Cl)c4)c3c2)o1 [Lapatinib] (partner 2 µM)
Summary of the method: as §1

KIN001-266 + Olaparib = compound: CCN1CCC(CC1)N2C=C(N=N2)CNC3=CC4=C(C(=CN=C4C(=C3)Cl)C#N)NC5=CC(=C(C=C5)F)Cl [KIN001-266] + O=C(c1cc(Cc2n[nH]c(=O)c3ccccc23)ccc1F)N1CCN(C(=O)C2CC2)CC1 [Olaparib] (partner 8 µM)
Summary of the method: as §1

KIN001-266 + Phenformin = compound: CCN1CCC(CC1)N2C=C(N=N2)CNC3=CC4=C(C(=CN=C4C(=C3)Cl)C#N)NC5=CC(=C(C=C5)F)Cl [KIN001-266] + N=C(N)NC(=N)NCCc1ccccc1 [Phenformin] (partner 250 µM)
Summary of the method: as §1

| Cell Line | relative viability (KIN001-266 + Trametinib; first compound 0.08 µM) | relative viability (KIN001-266 + Trametinib; first compound 0.253 µM) | relative viability (KIN001-266 + Trametinib; first compound 0.8 µM) | relative viability (KIN001-266 + Trametinib; first compound 2.53 µM) | relative viability (KIN001-266 + Trametinib; first compound 8 µM) | relative viability (KIN001-266 + Lapatinib; first compound 0.08 µM) | relative viability (KIN001-266 + Lapatinib; first compound 0.253 µM) | relative viability (KIN001-266 + Lapatinib; first compound 0.8 µM) | relative viability (KIN001-266 + Lapatinib; first compound 2.53 µM) | relative viability (KIN001-266 + Lapatinib; first compound 8 µM) | relative viability (KIN001-266 + Olaparib; first compound 0.08 µM) | relative viability (KIN001-266 + Olaparib; first compound 0.253 µM) | relative viability (KIN001-266 + Olaparib; first compound 0.8 µM) | relative viability (KIN001-266 + Olaparib; first compound 2.53 µM) | relative viability (KIN001-266 + Olaparib; first compound 8 µM) | relative viability (KIN001-266 + Phenformin; first compound 0.08 µM) | relative viability (KIN001-266 + Phenformin; first compound 0.253 µM) | relative viability (KIN001-266 + Phenformin; first compound 0.8 µM) | relative viability (KIN001-266 + Phenformin; first compound 2.53 µM) | relative viability (KIN001-266 + Phenformin; first compound 8 µM) |
| --- | --- | --- | --- | --- | --- | --- | --- | --- | --- | --- | --- | --- | --- | --- | --- | --- | --- | --- | --- | --- |
| NCI-H647 | 0.452 | 0.443 | 0.474 | 0.419 | 0.375 | 1.04 | 1.07 | 1.11 | 0.876 | 0.818 | 0.565 | 0.516 | 0.701 | 0.501 | 0.301 | 0.65 | 0.552 | 0.557 | 0.468 | 0.426 |
| LC-2-ad | 0.924 | 0.938 | 0.918 | 0.897 | 0.931 | 0.999 | 0.847 | 1.02 | 0.972 | 0.929 | 0.706 | 0.727 | 0.664 | 0.693 | 0.635 | 0.622 | 0.647 | 0.629 | 0.637 | 0.576 |
| NCI-H1793 | 0.436 | 0.452 |  | 0.39 | 0.299 | 0.646 | 0.643 | 0.81 | 0.485 | 0.561 | 0.864 | 0.823 |  | 0.923 | 0.711 | 0.418 | 0.324 | 0.25 | 0.352 | 0.251 |
| HCC-827 | 0.489 | 0.577 | 0.468 | 0.545 | 0.49 | 0.2 | 0.18 |  | 0.191 | 0.217 | 0.577 | 0.602 | 0.557 | 0.585 | 0.528 | 0.439 | 0.404 | 0.189 | 0.318 | 0.286 |
| HCC-78 | 0.747 | 0.705 | 0.667 | 0.838 | 0.753 | 0.79 | 0.612 | 0.597 | 0.731 | 0.773 | 0.832 | 0.793 | 0.767 | 0.841 | 0.677 | 0.714 | 0.664 |  | 0.656 | 0.806 |
| NCI-H2085 | 0.569 | 0.457 | 0.567 | 0.558 | 0.541 | 0.829 | 0.853 | 0.716 | 0.755 | 0.617 | 0.763 | 0.791 | 0.725 | 0.721 | 0.598 | 0.855 | 0.741 | 0.663 | 0.669 | 0.632 |
| PC-14 | 0.715 | 0.729 | 0.808 | 0.518 | 0.141 | 0.307 | 0.368 | 0.27 | 0.287 | 0.312 | 0.24 | 0.354 | 0.251 | 0.312 | 0.141 | 0.567 | 0.762 | 0.356 | 0.543 | 0.324 |
| NCI-H2342 | 0.922 | 0.868 | 0.848 | 1.01 | 1.22 |  |  |  |  |  | 0.547 | 0.4 | 0.427 | 0.407 | 0.419 | 0.638 | 0.572 | 0.537 | 0.531 | 0.642 |
| ABC-1 |  |  |  |  |  | 1.18 | 1.08 | 1.12 | 1.14 | 1.1 | 0.737 | 0.583 | 0.767 | 0.795 | 0.863 | 0.255 | 0.241 | 0.283 | 0.251 | 0.312 |
| ChaGo-K-1 | 0.914 | 0.915 | 0.87 | 0.637 | 0.459 |  |  |  |  |  | 0.401 | 0.422 | 0.301 | 0.282 | 0.227 | 0.508 | 0.505 | 0.473 | 0.48 | 0.454 |
| EBC-1 |  |  |  |  |  | 0.219 | 0.218 | 0.209 | 0.199 | 0.201 | 0.76 | 0.72 | 0.635 | 0.649 | 0.511 |  |  |  |  |  |
| NCI-H441 | 0.455 | 0.525 | 0.489 | 0.471 | 0.399 |  |  |  |  |  | 0.504 | 0.645 | 0.562 | 0.455 | 0.444 | 0.937 | 0.837 | 0.806 | 0.805 | 0.641 |
| A549 |  |  |  |  |  | 1.03 | 0.991 | 1.05 | 0.924 | 0.84 | 0.367 | 0.279 | 0.297 | 0.347 | 0.305 | 0.22 | 0.178 | 0.131 | 0.14 | 0.14 |
| SW 900 | 0.83 | 0.727 | 1.02 | 0.812 | 0.324 |  |  |  |  |  | 0.964 | 0.88 | 0.877 | 0.821 | 0.335 | 0.617 | 0.564 | 0.537 | 0.564 | 0.357 |
| NCI-H1703 |  |  |  |  |  | 1.02 | 0.947 | 1.25 | 0.87 | 0.532 | 0.451 | 0.386 | 0.435 | 0.391 | 0.401 |  |  |  |  |  |
| LCLC-103H | 0.715 | 0.73 | 0.592 | 0.645 | 0.668 |  |  |  |  |  | 0.727 | 0.762 | 0.722 | 0.742 | 0.756 | 0.389 | 0.28 | 0.285 | 0.361 | 0.332 |
| NCI-H1563 |  |  |  |  |  | 1.05 | 1.1 | 0.968 | 0.922 | 0.835 |  |  |  |  |  | 0.663 | 0.694 | 0.669 | 0.583 | 0.62 |
